Molecular target: hPAD4 enzyme (Homo sapiens (Human), UniProt Q9UM07)
Assay: RFMS2 assay (RapidFire mass spectrometry, TSTGGRQGSHH peptide substrate)
Format: biochemical
Details: 35 nM recombinant human PAD4, 500 μM TSTGGRQGSHH peptide, 30 minutes at room temperature; read-out: RFMS 2 IC50
Summary of the method: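 Recombinant human PAD4 (35 nM) with 500 μM TSTGGRQGSHH peptide in HEPES pH 7.4, 200 mM NaCl, 2 mM CaCl2, 5 mM DTT, 1.2% DMSO, 30 min at room temperature; 3-fold compound series, top 20 μM. Quenched with formic acid; substrate and citrullinated product quantified by RapidFire MRM mass spectrometry for IC50.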

Chain of hPAD4 enzyme (Q9UM07 whole entry): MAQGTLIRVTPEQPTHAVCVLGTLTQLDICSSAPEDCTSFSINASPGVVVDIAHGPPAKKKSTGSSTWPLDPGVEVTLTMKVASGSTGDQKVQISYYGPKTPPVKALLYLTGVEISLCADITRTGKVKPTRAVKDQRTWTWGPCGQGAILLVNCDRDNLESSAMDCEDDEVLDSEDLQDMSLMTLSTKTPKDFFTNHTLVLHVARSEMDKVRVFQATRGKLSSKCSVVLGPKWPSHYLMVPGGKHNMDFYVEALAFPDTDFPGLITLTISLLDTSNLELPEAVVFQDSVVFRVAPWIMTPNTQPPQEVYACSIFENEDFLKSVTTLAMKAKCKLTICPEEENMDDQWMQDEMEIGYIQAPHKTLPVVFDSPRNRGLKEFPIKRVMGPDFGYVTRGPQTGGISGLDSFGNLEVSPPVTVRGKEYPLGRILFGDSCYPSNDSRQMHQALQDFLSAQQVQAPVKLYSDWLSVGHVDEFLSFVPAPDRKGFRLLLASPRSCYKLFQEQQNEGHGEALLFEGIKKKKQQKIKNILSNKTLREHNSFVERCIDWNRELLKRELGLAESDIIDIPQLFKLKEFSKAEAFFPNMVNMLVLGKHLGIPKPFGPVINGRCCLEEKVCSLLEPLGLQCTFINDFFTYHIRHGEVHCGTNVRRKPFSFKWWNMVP

IC50 [µM] | Structure (SMILES)
0.501 to 1 | Cn1c(-c2cc3cccc(OC[C@H]4COCCN4)c3n2CC2CC2)nc2cc3c(cc21)CCN(C[C@H](N)CF)C3=O [Example 188, 6-((S)-2-amino-3-fluoropropyl)-2-(1-(cyclopropylmethyl)-7-(((R)-morpholin-3-yl)methoxy)-1H-indol-2-yl)-1-methyl-1,6,7,8-tetrahydro-5H-imidazo[4,5-g]isoquinolin-5-one]
0.101 to 0.5 | Cn1c(-c2cc3cccc(OCc4cocn4)c3n2CC2CC2)nc2cc3c(cc21)CCN(C[C@H](N)CF)C3=O [Example 189, (S)-6-(2-amino-3-fluoropropyl)-2-(1-(cyclopropylmethyl)-7-(oxazol-4-ylmethoxy)-1H-indol-2-yl)-1-methyl-1,6,7,8-tetrahydro-5H-imidazo[4,5-g]isoquinolin-5-one]
0.101 to 0.5 | C[C@@H](CCO)Oc1cccc2cc(-c3nc4cc5c(cc4n3C)CCN(C[C@H](N)CF)C5=O)n(CC3CC3)c12 [Example 191, 6-((S)-2-amino-3-fluoropropyl)-2-(1-(cyclopropylmethyl)-7-(((S)-4-hydroxybutan-2-yl)oxy)-1H-indol-2-yl)-1-methyl-1,6,7,8-tetrahydro-5H-imidazo[4,5-g]isoquinolin-5-one]
0.101 to 0.5 | C[C@H](CCO)Oc1cccc2cc(-c3nc4cc5c(cc4n3C)CCN(C[C@H](N)CF)C5=O)n(CC3CC3)c12 [Example 192, 6-((S)-2-amino-3-fluoropropyl)-2-(1-(cyclopropylmethyl)-7-(((R)-4-hydroxybutan-2-yl)oxy)-1H-indol-2-yl)-1-methyl-1,6,7,8-tetrahydro-5H-imidazo[4,5-g]isoquinolin-5-one]
0.011 to 0.1 | Cn1c(-c2cc3cccc(OCc4cn[nH]c4)c3n2CC2CC2)nc2cc3c(cc21)CCN(C[C@H](N)CF)C3=O [Example 193, (S)-2-(7-((1H-pyrazol-4-yl)methoxy)-1-(cyclopropylmethyl)-1H-indol-2-yl)-6-(2-amino-3-fluoropropyl)-1-methyl-1,6,7,8-tetrahydro-5H-imidazo[4,5-g]isoquinolin-5-one]
0.011 to 0.1 | Cn1c(-c2cc3cccc(OCCc4cnco4)c3n2CC2CC2)nc2cc3c(cc21)CCN(C[C@H](N)CF)C3=O [Example 194, (S)-6-(2-amino-3-fluoropropyl)-2-(1-(cyclopropylmethyl)-7-(2-(oxazol-5-yl)ethoxy)-1H-indol-2-yl)-1-methyl-1,6,7,8-tetrahydro-5H-imidazo[4,5-g]isoquinolin-5-one]
0.101 to 0.5 | Cn1c(-c2cc3cccc(OCCc4cocn4)c3n2CC2CC2)nc2cc3c(cc21)CCN(C[C@H](N)CF)C3=O [Example 196, (S)-6-(2-amino-3-fluoropropyl)-2-(1-(cyclopropylmethyl)-7-(2-(oxazol-4-yl)ethoxy)-1H-indol-2-yl)-1-methyl-1,6,7,8-tetrahydro-5H-imidazo[4,5-g]isoquinolin-5-one]
0.101 to 0.5 | CC(Oc1cccc2cc(-c3nc4cc5c(cc4n3C)CCN(C[C@H](N)CF)C5=O)n(CC3CC3)c12)c1ccno1 (stereo partly drawn) [Example 197, 6-((S)-2-amino-3-fluoropropyl)-2-(1-(cyclopropylmethyl)-7-(1-(isoxazol-5-yl)ethoxy)-1H-indol-2-yl)-1-methyl-1,6,7,8-tetrahydro-5H-imidazo[4,5-g]isoquinolin-5-one]
0.101 to 0.5 | COC(=O)NC[C@@H](C)Oc1cccc2cc(-c3nc4cc5c(cc4n3C)CCN(C[C@H](N)CF)C5=O)n(CC3CC3)c12 [Example 200, methyl ((R)-2-((2-(6-((S)-2-amino-3-fluoropropyl)-1-methyl-5-oxo-5,6,7,8-tetrahydro-1H-imidazo[4,5-g]isoquinolin-2-yl)-1-(cyclopropylmethyl)-1H-indol-7-yl)oxy)propyl)carbamate]
0.101 to 0.5 | COC(=O)NC[C@H](C)Oc1cccc2cc(-c3nc4cc5c(cc4n3C)CCN(C[C@H](N)CF)C5=O)n(CC3CC3)c12 [Example 202, methyl ((S)-2-((2-(6-((S)-2-amino-3-fluoropropyl)-1-methyl-5-oxo-5,6,7,8-tetrahydro-1H-imidazo[4,5-g]isoquinolin-2-yl)-1-(cyclopropylmethyl)-1H-indol-7-yl)oxy)propyl) carbamate]
0.101 to 0.5 | Cn1c(-c2cc3cccc(OCCc4cc[nH]c4)c3n2CC2CC2)nc2cc3c(cc21)CCN(C[C@H](N)CF)C3=O [Example 203]
0.501 to 1 | COC(=O)N[C@H](C)COc1cccc2cc(-c3nc4cc5c(cc4n3C)CCN(C[C@H](N)CF)C5=O)n(CC3CC3)c12 [Example 209, methyl ((R)-1-((2-(6-((S)-2-amino-3-fluoropropyl)-1-methyl-5-oxo-5,6,7,8-tetrahydro-1H-imidazo[4,5-g]isoquinolin-2-yl)-1-(cyclopropylmethyl)-1H-indol-7-yl)oxy)propan-2-yl) carbamate]
0.101 to 0.5 | CNC(=O)OCCOc1cccc2cc(-c3nc4cc5c(cc4n3C)CCN(C[C@H](N)CF)C5=O)n(CC3CC3)c12 [Example 211, (S)-2-((2-(6-(2-amino-3-fluoropropyl)-1-methyl-5-oxo-5,6,7,8-tetrahydro-1H-imidazo[4,5-g]isoquinolin-2-yl)-1-(cyclopropylmethyl)-1H-indol-7-yl)oxy)ethyl methylcarbamate]
0.501 to 1 | Cn1c(-c2cc3cccc(OCC(C)(C)O)c3n2CC2CC2)nc2cc3c(cc21)CCN(C[C@H](N)CF)C3=O [Example 214, (S)-6-(2-amino-3-fluoropropyl)-2-(1-(cyclopropylmethyl)-7-(2-hydroxy-2-methylpropoxy)-1H-indol-2-yl)-1-methyl-1,6,7,8-tetrahydro-5H-imidazo[4,5-g]isoquinolin-5-one]
0.101 to 0.5 | Cn1c(-c2cc3cccc(OC[C@@H](O)C(F)(F)F)c3n2CC2CC2)nc2cc3c(cc21)CCN(C[C@H](N)CF)C3=O [Example 215, 6-((S)-2-amino-3-fluoropropyl)-2-(1-(cyclopropylmethyl)-7-((R)-3,3,3-trifluoro-2-hydroxypropoxy)-1H-indol-2-yl)-1-methyl-1,6,7,8-tetrahydro-5H-imidazo[4,5-g]isoquinolin-5-one]
0.101 to 0.5 | Cn1c(-c2cc3cccc(OC[C@H](O)C(F)(F)F)c3n2CC2CC2)nc2cc3c(cc21)CCN(C[C@H](N)CF)C3=O [Example 216, 6-((S)-2-amino-3-fluoropropyl)-2-(1-(cyclopropylmethyl)-7-((S)-3,3,3-trifluoro-2-hydroxypropoxy)-1H-indol-2-yl)-1-methyl-1,6,7,8-tetrahydro-5H-imidazo[4,5-g]isoquinolin-5-one]
0.101 to 0.5 | Cn1c(-c2cc3cccc(OCCO)c3n2Cc2ccno2)nc2cc3c(cc21)CCN(C[C@H](N)CF)C3=O [Example 218, (S)-6-(2-amino-3-fluoropropyl)-2-(7-(2-hydroxyethoxy)-1-(isoxazol-5-ylmethyl)-1H-indol-2-yl)-1-methyl-1,6,7,8-tetrahydro-5H-imidazo[4,5-g]isoquinolin-5-one]
0.101 to 0.5 | Cn1c(-c2cc3cccc(OCC4CCNC4=O)c3n2CC2CC2)nc2cc3c(cc21)CCN(C[C@H](N)CF)C3=O (stereo partly drawn) [Example 219, 6-((S)-2-amino-3-fluoropropyl)-2-(1-(cyclopropylmethyl)-7-((2-oxopyrrolidin-3-yl)methoxy)-1H-indol-2-yl)-1-methyl-1,6,7,8-tetrahydro-5H-imidazo[4,5-g]isoquinolin-5-one]
